Two compounds from PMC11891579, “Fluorescent PyrAte-(S)-citalopram conjugates enable imaging of the serotonin transporter in living tissue” (Chemical Science, 2025) can be followed below.

This assay has as its target T1, endogenously expressed SERT (Mus musculus, UniProt Q60857).
T1 construct: label endogenously expressed SERT; from tissue; host or cells: acute coronal brain slices of C57/BL-6 and Pet1-eYFP mice (dorsal striatum, substantia nigra reticulata, dorsal raphe)
Put plainly: two-photon microscopy of acute mouse brain slices. The conditions noted are these: for staining of acute mouse brain slices (DS, SNr, DR): 500 nM, 30 min, reduced by escitalopram or paroxetine. An excerpt: All animal protocols were approved by the Institutional Animal Care and Use Committee (IACUC) of Columbia University, following guidelines established in the NIH Guide for the Care and Use of Laboratory Animals. All animals were caged in groups of 5 or less in a 12-hr light/dark cycle with access to food and water ad libitum.
Acute mouse brain slices preparation
Wild-type C57/BL-6 (The Jackson Laboratory, Bar Harbor, ME) and Pet1-eYFP mice were sacrificed by cervical dislocation at ages > 12 weeks. Pet1-eYFP mice (Cg-Tg(Fev-cre)1Esd/J (ePet-cre; The Jackson Laboratory) crossed with Ai32(RCLChR2(H134R)/EYFP (Ai32; The Jackson Laboratory) maintained on a 129SvEv/Tac background) were kindly provided by Dr. Mark S. Ansorge (Columbia University Irving Medical Center; Department of Psychiatry, New York, NY 10032). Mice were decapitated, and the brain was removed and placed in an ice-cold sucrose cutting solution. Coronal brain slices with 300 µm thickness were prepared using a Leica VT1200 vibratome at 0 – 4 °C. Slices containing the striatum, substantia nigra, and the raphe were transferred to oxygenated ACSF solution and allowed to equilibrate at room temperature.
Slices were incubated with PyrAte-(S)-citalopram conjugates (500 nM in ACSF) for 30 minutes at room temperature. For inhibition experiments, escitalopram (2 µM) and paroxetine (30 µM) were incubated for 15 minutes prior to addition of the test compound. Each slice was then transferred to an imaging chamber and held in place by a stainless-steel slice anchor (Warner Instruments). ACSF solutions containing the test compounds were continuously perfused throughout the imaging experiments. Structures at depths between 20 to 30 µm from the top of the slice were visualized with fluorescent signals using a Prairie Ultima multi-photon microscopy sytem: PyrAte was imaged using 810 nm excitation wavelength and 525/50 nm emission filter, eYFP was imaged using 965 nm excitation wavelength and 525/50 nm emission filter. Images were captured using Prairie View software and processed with ImageJ. Further co-localization analysis was performed using the JACoP plug-in.1 Statistical and data analysis
Data treatment and statistical analysis were performed using Microsoft Excel 2016 and GraphPad Prism v10.0. Data and statistical tests as shown in Figure 2 include individual points, mean, SEM, and P = 0.0023 as determined using two-tailed, paired t-test (t = 5.690, df = 5). Data and statistical tests as shown in Figure 5 include individual values, mean, SEM, and P values as determined using two-tailed unpaired t-test with Welch’s corrections (Fig. 5A: P = 0.0166, t = 4.665, df = 3.157; Fig. 5B: P =

“Also recorded” adds a separate entry of the source.

T1 sequence (Q60857 whole entry): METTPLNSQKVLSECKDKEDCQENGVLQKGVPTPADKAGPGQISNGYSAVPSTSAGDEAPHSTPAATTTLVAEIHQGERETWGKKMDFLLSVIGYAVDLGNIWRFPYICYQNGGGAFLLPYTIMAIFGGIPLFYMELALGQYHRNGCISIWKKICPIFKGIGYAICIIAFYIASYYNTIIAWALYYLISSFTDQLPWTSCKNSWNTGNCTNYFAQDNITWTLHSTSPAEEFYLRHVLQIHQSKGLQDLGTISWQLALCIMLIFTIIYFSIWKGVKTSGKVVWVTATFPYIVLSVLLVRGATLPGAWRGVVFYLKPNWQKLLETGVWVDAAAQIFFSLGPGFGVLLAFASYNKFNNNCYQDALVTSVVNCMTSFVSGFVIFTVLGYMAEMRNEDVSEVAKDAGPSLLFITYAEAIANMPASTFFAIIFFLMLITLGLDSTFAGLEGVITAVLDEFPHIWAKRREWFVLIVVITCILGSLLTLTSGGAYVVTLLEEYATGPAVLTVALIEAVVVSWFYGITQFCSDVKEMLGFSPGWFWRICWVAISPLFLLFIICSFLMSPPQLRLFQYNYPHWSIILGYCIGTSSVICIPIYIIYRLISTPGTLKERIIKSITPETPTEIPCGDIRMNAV

In the case of `CCN(CC)c1ccc(-c2cc[n+]3c(-c4ccccc4)c(N4CCCC4)n(CCCCCCC(=O)NCc4ccc5c(c4)CO[C@@]5(CCCN(C)C)c4ccc(F)cc4)c3c2)cc1` [PYR-C6-CIT, PyrAte-C6-(S)-citalopram], the “staining of acute mouse brain slices (DS, SNr, DR)” value was “effectively stains all three areas examined; also recorded: SERT-specific staining in acute mouse brain slices”.
Turning to `CCN(CC)c1ccc(-c2cc[n+]3c(-c4ccccc4)c(N4CCCC4)n(CCCC(=O)NCc4ccc5c(c4)CO[C@@]5(CCCN(C)C)c4ccc(F)cc4)c3c2)cc1` [PYR-C3-CIT, PyrAte-C3-(S)-citalopram], the “staining of acute mouse brain slices (DS, SNr, DR)” value was “localization of the compound in serotonergic regions in the DS and SNr”. Moreover, the “Pearson's correlation coefficient r, co-localization with eYFP-expressing serotonergic projections” value (“Pearson's correlation coefficient r” for short) (DS, Pet1-eYFP mice) came to 0.70. For the same compound, the “Pearson's correlation coefficient r” value (DS, in the presence of paroxetine) is listed as 0.43. Also, the “Pearson's correlation coefficient r” value (SNr, Pet1-eYFP mice) was 0.72. The “Pearson's correlation coefficient r” value (SNr, in the presence of paroxetine) was found to be 0.58.
